Source: the CheMixHub viscosity set
“And” between values parts separate entries of the source, which are not always exact repeats. Equal entries are not always repeated.

Assay: xn = mol fraction of the nth substance listed

Cc1ncc[nH]1 + O
viscosity [mPa·s], 100 kPa
Conditions | x1 = 0.0238 | x1 = 0.0373 | x1 = 0.052 | x1 = 0.0682 | x1 = 0.086
298.15 K | 1.151 | 1.312 | 1.494 | 1.718 | 1.971
303.15 K | 1.02 | 1.16 | 1.315 | 1.498 | 1.707
313.15 K | 0.838 | 0.933 | 1.07 | 1.214 | 1.379
323.15 K | 0.696 | 0.767 | 0.87 | 0.978 | 1.1

F.[F-].[Na+] + O
viscosity [mPa·s], 100 kPa
Conditions | x1 = 0.003 | x1 = 0.006 | x1 = 0.009
298.15 K | 0.939 | 0.9963 | 1.068
323.15 K | 0.578 | 0.61 | 0.657

NCC(=O)[O-].[Na+] + O
viscosity [mPa·s], 101 kPa
Conditions | x1 = 0.01 | x1 = 0.0194 | x1 = 0.0289 | x1 = 0.0371 | x1 = 0.048
298.15 K | 1.124 | 1.41 | 1.747 | 2.15 | 2.82
308.15 K | 0.904 | 1.106 | 1.369 | 1.662 | 2.13
323.15 K | 0.677 | 0.818 | 0.993 | 1.183 | 1.479

O=C1CCCO1 + O
viscosity [mPa·s]
Conditions | 298.15 K | 303.15 K | 308.15 K | 313.15 K | 318.15 K | 323.15 K
101 kPa, x1 = 0.0503 | 1.233 | 1.096 | 0.9821 | 0.8569 | 0.8041 | –
101 kPa, x1 = 0.0995 | 1.481 | 1.312 | 1.171 | 1.031 | 0.9551 | –
101 kPa, x1 = 0.1997 | 1.783 | 1.577 | 1.407 | 1.248 | 1.143 | –
101 kPa, x1 = 0.2994 | 1.896 | 1.686 | 1.509 | 1.346 | 1.232 | –
101 kPa, x1 = 0.3997 | 1.915 | 1.711 | 1.538 | 1.379 | 1.266 | –
101 kPa, x1 = 0.499 | 1.875 | 1.688 | 1.528 | 1.379 | 1.273 | –
101 kPa, x1 = 0.5994 | – | 1.637 | 1.493 | 1.356 | 1.26 | –
101 kPa, x1 = 0.701 | 1.754 | 1.603 | 1.471 | 1.343 | 1.255 | –
101 kPa, x1 = 0.7995 | 1.716 | 1.578 | 1.457 | 1.337 | 1.256 | –
101 kPa, x1 = 0.8996 | 1.697 | 1.569 | 1.457 | 1.343 | 1.267 | –
101 kPa, x2 = 0.3 | 1.645 | – | – | – | – | –
101 kPa, x2 = 0.9 | 1.385 | – | – | – | – | –
101.33 kPa, x2 = 0.0898 | – | 1.56 | – | 1.339 | – | 1.163
101.33 kPa, x2 = 0.2337 | – | 1.595 | – | 1.349 | – | 1.159
101.33 kPa, x2 = 0.6207 | – | 1.674 | – | 1.349 | – | 1.112
101.33 kPa, x2 = 0.9031 | – | 1.257 | – | 1.005 | – | 0.8246

O=C[C@H](O)[C@@H](O)[C@H](O)CO + O
viscosity, 101 kPa
Conditions | x1 = 0.000546 | x1 = 0.0009 | x1 = 0.00124 | x1 = 0.0031 | x1 = 0.006 | x1 = 0.0063 | x1 = 0.013
293.15 K | – | – | – | 1.053 mPa·s | 1.118 mPa·s and 1.118 mPa·s (2×) | 1.118 mPa·s | 1.229 mPa·s and 1.229 mPa·s and 1.229 mPa·s
298.15 K | 0.9164 mPa·s | 0.9244 mPa·s | 0.9306 mPa·s | – | 0.9937 mPa·s and 0.9937 mPa·s and 0.9937 mPa·s | 0.9937 mPa·s | –
303.15 K | – | – | – | 0.8381 mPa·s | 0.8889 mPa·s and 0.8889 mPa·s (2×) | 0.8889 mPa·s | 0.986 mPa·s and 0.986 mPa·s and 0.986 mPa·s
308.15 K | – | – | – | 0.7529 mPa·s | 0.7916 mPa·s and 0.7916 mPa·s and 0.7916 mPa·s | 0.7916 mPa·s | 0.8843 mPa·s and 0.8843 mPa·s (2×)
313.15 K | – | – | – | 0.683 mPa·s | 0.7163 mPa·s and 0.7163 mPa·s and 0.7163 mPa·s | 0.7163 mPa·s | 0.798 mPa·s and 0.798 mPa·s and 0.798 mPa·s
318.15 K | – | – | – | – | 0.6565 mPa·s and 0.6565 mPa·s and 0.6565 mPa·s | 0.6565 mPa·s | 0.7216 mPa·s and 0.7216 mPa·s and 0.7216 mPa·s

OCC(F)(F)F + O
Conditions | viscosity [mPa·s]
298 K, 101.3 kPa, x1 = 0.026 | 1.152
298 K, 101.3 kPa, x1 = 0.0503 | 1.358
298 K, 101.3 kPa, x1 = 0.075 | 1.528
298 K, 101.3 kPa, x1 = 0.0984 | 1.634
298 K, 101.3 kPa, x1 = 0.1984 | 1.882
298 K, 101.3 kPa, x1 = 0.3016 | 1.876
298 K, 101.3 kPa, x1 = 0.4012 | 1.819
298 K, 101.3 kPa, x1 = 0.5015 | 1.757
298 K, 101.3 kPa, x1 = 0.5993 | 1.713
298 K, 101.3 kPa, x1 = 0.6501 | 1.656
298 K, 101.3 kPa, x1 = 0.8029 | 1.651
298 K, 101.3 kPa, x1 = 0.9024 | 1.673
298.15 K, 100 kPa, x1 = 0.1022 | 1.608
298.15 K, 100 kPa, x1 = 0.2084 | 1.828
298.15 K, 100 kPa, x1 = 0.3227 | 1.802
298.15 K, 100 kPa, x1 = 0.4087 | 1.743
298.15 K, 100 kPa, x1 = 0.5727 | 1.665
298.15 K, 100 kPa, x1 = 0.7111 | 1.621
298.15 K, 100 kPa, x1 = 0.9104 | 1.64
298.15 K, 101 kPa, x1 = 0.0196 | 1.061
298.15 K, 101 kPa, x1 = 0.04313 | 1.271
298.15 K, 101 kPa, x1 = 0.07168 | 1.446
298.15 K, 101 kPa, x1 = 0.1072 | 1.642
298.15 K, 101 kPa, x1 = 0.1525 | 1.773
298.15 K, 101 kPa, x1 = 0.2128 | 1.852
298.15 K, 101 kPa, x1 = 0.296 | 1.865
298.15 K, 101 kPa, x1 = 0.4193 | 1.782
298.15 K, 101 kPa, x1 = 0.6192 | 1.667
303 K, 101.3 kPa, x1 = 0.026 | 0.999
303 K, 101.3 kPa, x1 = 0.0503 | 1.163
303 K, 101.3 kPa, x1 = 0.075 | 1.312
303 K, 101.3 kPa, x1 = 0.0984 | 1.395
303 K, 101.3 kPa, x1 = 0.1984 | 1.588
303 K, 101.3 kPa, x1 = 0.3016 | 1.609
303 K, 101.3 kPa, x1 = 0.4012 | 1.566
303 K, 101.3 kPa, x1 = 0.5015 | 1.523
303 K, 101.3 kPa, x1 = 0.5993 | 1.492
303 K, 101.3 kPa, x1 = 0.6501 | 1.45
303 K, 101.3 kPa, x1 = 0.8029 | 1.444
303 K, 101.3 kPa, x1 = 0.9024 | 1.468
308 K, 101.3 kPa, x1 = 0.026 | 0.887
308 K, 101.3 kPa, x1 = 0.0503 | 1.017
308 K, 101.3 kPa, x1 = 0.075 | 1.138
308 K, 101.3 kPa, x1 = 0.0984 | 1.214
308 K, 101.3 kPa, x1 = 0.1984 | 1.398
308 K, 101.3 kPa, x1 = 0.3016 | 1.406
308 K, 101.3 kPa, x1 = 0.4012 | 1.375
308 K, 101.3 kPa, x1 = 0.5015 | 1.338
308 K, 101.3 kPa, x1 = 0.5993 | 1.305
308 K, 101.3 kPa, x1 = 0.6501 | 1.284
308 K, 101.3 kPa, x1 = 0.8029 | 1.278
308 K, 101.3 kPa, x1 = 0.9024 | 1.296
313 K, 101.3 kPa, x1 = 0.026 | 0.791
313 K, 101.3 kPa, x1 = 0.0503 | 0.899
313 K, 101.3 kPa, x1 = 0.075 | 1.002
313 K, 101.3 kPa, x1 = 0.0984 | 1.065
313 K, 101.3 kPa, x1 = 0.1984 | 1.223
313 K, 101.3 kPa, x1 = 0.3016 | 1.235
313 K, 101.3 kPa, x1 = 0.4012 | 1.211
313 K, 101.3 kPa, x1 = 0.5015 | 1.179
313 K, 101.3 kPa, x1 = 0.5993 | 1.159
313 K, 101.3 kPa, x1 = 0.6501 | 1.145
313 K, 101.3 kPa, x1 = 0.8029 | 1.136
313 K, 101.3 kPa, x1 = 0.9024 | 1.152
323.15 K, 100 kPa, x1 = 0.1022 | 0.85
323.15 K, 100 kPa, x1 = 0.2084 | 0.944
323.15 K, 100 kPa, x1 = 0.3227 | 0.949
323.15 K, 100 kPa, x1 = 0.4087 | 0.94
323.15 K, 100 kPa, x1 = 0.5727 | 0.911
323.15 K, 100 kPa, x1 = 0.7111 | 0.912
323.15 K, 100 kPa, x1 = 0.9104 | 0.935

[Br-].[NH4+] + O
298.15 K, 101 kPa
Conditions | viscosity [mPa·s]
x1 = 0.0089 | 0.8738
x1 = 0.0177 | 0.8563
x1 = 0.0348 | 0.8265
